Source: patent US8889671B2, “Compounds and methods for treating bacterial infections” (AstraZeneca AB, priority 2013, dated 2014)
pIC50: −log10 of the molar value. In brackets after ≈: the same amount, converted by molar mass. Where two headings read alike, the source gives them in different places.

Assays:
[1] = target: Escherichia coli DNA gyrase A/B tetramer (Escherichia coli (strain K12), UniProt P0AES4+P0AES6); assay: DNA gyrase supercoiling activity fluorescence polarisation assay; assay type: biochemical; details: 0.3 mM ATP
Protocol: In a black, 384-well polystyrene assay plate, 30 microliters/well of 5 nM Escherichia coli DNA gyrase A/B tetramer and 130 micrograms/mL of topologically relaxed plasmid containing the triplex-forming sequence
in an assay buffer consisting of 35 mM Tris-HCl (pH 7.5), 24 mM KCl, 4 mM MgCl2, 2 mM dithiothreitol, 1.8 mM spermidine, 5% (v/v) glycerol, 200 nM bovine serum albumin, 0.8% dimethylsulfoxide, and 0.3 mM ATP were incubated at ambient temperature for (typically 30 minutes) in the absence or presence of 5-10 different concentrations of test compound. The supercoiling reactions were quenched by the addition of 10 microliters/well of 40 nM oligodeoxynucleotide probe in 3× triplex-forming buffer consisting of 150 mM NaCl, and 150 mM sodium acetate at pH 3.5. The oligodeoxynucleotide probe was 5′-BODIPY-FL-labeled
After 60 minutes, the fluorescence anisotropy of the BODIPY-FL was measured in a Tecan Ultra plate reader, using 485 nm excitation and 535 nm emission filters equipped with polarizers. The IC50 was determined by nonlinear regression using two control reactions.

Escherichia coli = assay: Susceptibility testing (MIC) Assay 2, broth microdilution; assay type: cell-based; details: K12, read-out: Eco MIC
Protocol: (§1) Minimum Inhibitory Concentrations (MICs) were determined by the broth microdilution method in accordance with the Clinical and Laboratory Standards Institute (CLSI) guidelines. In brief, organism suspensions were adjusted to a 0.5 McFarland standard to yield a final inoculum between 3×10^5 and 7×10^5 colony-forming units (CFU)/mL. Bacterial inocula were generally prepared in sterile, cation adjusted Mueller-Hinton Broth (Becton Dickinson) which included Escherichia coli, Klebsiella pneumoniae, and Pseudomonas aeruginosa. Haemophilus influenzae bacterial inocula were prepared in sterile, cation adjusted Mueller-Hinton Broth (Becton Dickinson) containing 0.5% yeast extract (Becton Dickinson) plus 30 mL of 15 μg/mL Bovine Hematin stock (Sigma), and 3 mL of 15 μg/mL β-nicotinamide adenine dinucleotide (Sigma). Strains of Neisseria were tested for MICs using agar dilution methodology in accordance with CLSI guidelines. For broth microdilution testing, an inoculum volume of 100 μL was added to wells (using a Tecan EVO robot) containing 2 μL of DMSO containing 2-fold serial dilutions of drug. All inoculated microdilution panels were incubated in ambient air at 35° C. for 18-24 hours. Following incubation, the lowest concentration of the drug that prevented visible growth as read at OD600 nm and confirmed by a visual read using a test reading mirror was recorded as the MIC. Performance of the assay was monitored by the use of laboratory quality-control strains and commercially available control compounds with defined MIC spectrums, in accordance with CLSI guidelines. Table 3 provides the MIC results (μM) of Examples 1-77 tested in Assay 2. Table 4 provides the MIC (μg/mL) results of Examples 78-80 tested in Assay 2.

Klebsiella pneumoniae = assay: as above; assay type: cell-based; details: clinical isolate, mucoid, read-out: Kpn MIC
Protocol: as §1

Pseudomonas aeruginosa = assay: as above; assay type: cell-based; details: for MIC: PAO1, read-out: Pae MIC; for Pae MIC: PAO1
Protocol: as §1

Haemophilus influenzae = assay: as above; assay type: cell-based; details: ATCC 51907, in vivo strain, read-out: Hin MIC
Protocol: as §1

Streptococcus pneumoniae = assay: Susceptibility testing (MIC) Assay 1, broth microdilution; assay type: cell-based
Protocol: (§2) Minimum Inhibitory Concentrations (MICs) were determined by the broth microdilution method in accordance with the Clinical and Laboratory Standards Institute (CLSI) guidelines. In brief, organism suspensions were adjusted to a 0.5 McFarland standard to yield a final inoculum between 3×10^5 and 7×10^5 colony-forming units (CFU)/mL. Bacterial inocula were prepared for most organisms in sterile, cation adjusted Mueller-Hinton Broth (Beckton Dickinson). The streptococci were prepared as above in cation adjusted Mueller-Hinton Broth to which 2.5% lysed horse blood (Hema Resource & Supply Inc.) was added. An inoculum volume of 100 μL was added to wells (using a Tecan EVO robot) containing 2 μL of DMSO containing 2-fold serial dilutions of drug. All inoculated microdilution trays were incubated in ambient air at 35° C. for 18-24 hours. Following incubation, the lowest concentration of the drug that prevented visible growth as read at OD600 nm and confirmed by a visual read using a test reading mirror was recorded as the MIC. Performance of the assay was monitored by the use of laboratory quality-control strains and commercially available control compounds with defined MIC spectrums, in accordance with CLSI guidelines. Table 1 provides the MIC results (μM) of Examples 1-77 tested in Assay 1. Table 2 provides the MIC (μg/mL) results of Examples 78-80 tested in Assay 1.

Streptococcus pyogenes = assay: as above; assay type: cell-based; details: Streptococcus pyrgenes, in vivo strain, read-out: Spy MIC
Protocol: as §2

Staphylococcus aureus = assay: as above; assay type: cell-based
Protocol: as §2

[2] = Eco Gyr FP Mean IC50, E. coli DNA gyrase supercoiling
[3] = ATCC51907, Haemophilus influenzae
[4] = in vivo strain (footnote b), read-out: Spn(b) MIC
[5] = in vivo strain (footnote c), read-out: Spn(c) MIC
[6] = Staphylococcus aureus, Staphylococcus aureus in vivo strain, MSQS, read-out: Sau(d) MIC
[7] = Staphylococcus aureus, in vivo strain, MRQR, read-out: Sau(e) MIC
[8] = Staphylococcus aureus, serum, read-out: Sau(f) MIC
[9] = E. coli DNA gyrase supercoiling, read-out: Eco Gyr FP Mean IC50
[10] = Staphylococcus aureus in vivo strain, MSQS, read-out: Sau(d) MIC

Structure (SMILES)	pIC50 [1, 2]	MIC (Escherichia coli) [µM]	MIC (Klebsiella pneumoniae) [µM]	MIC (Pseudomonas aeruginosa) [µM]	MIC (Haemophilus influenzae; [3]) [µM]	MIC (Streptococcus pneumoniae; [4]) [µM]	MIC (Streptococcus pneumoniae; [5]) [µM]	MIC (Streptococcus pyogenes; Streptococcus pyogenes) [µM]	MIC (Staphylococcus aureus; [6]) [µM]	MIC (Staphylococcus aureus; [7]) [µM]	MIC (Staphylococcus aureus; [8]) [µM]	pIC50 [1, 9]	Pae MIC (Pseudomonas aeruginosa) [µM]	MIC (Haemophilus influenzae) [µM]	MIC (Streptococcus pyogenes) [µM]	MIC (Staphylococcus aureus; [10]) [µM]
COC[C@H]1CN(c2noc3c(Cl)c4c(cc23)CC2(C(=O)NC(=O)NC2=O)[C@H]2[C@H](C)O[C@H](C)CN42)C(=O)O1 [Example 21, (2R,4S,4aS)-11-Chloro-8-[(5R)-4-(methoxymethyl)-2-oxo-1,3-oxazolidin-3-yl]-2,4-dimethyl-1,2,4,4a-tetrahydro-2′H,6H-spiro[1,4-oxazino[4,3-a][1,2]oxazolo[4,5-g]quinoline-5,5′-pyrimidine]-2′,4′,6′(1′H,3′H)-trione]	6.27	50 (≈ 26.7 µg/mL)	200 (≈ 107 µg/mL)	> 200	1.6 (≈ 0.854 µg/mL)	1.6 (≈ 0.854 µg/mL)	1.6 (≈ 0.854 µg/mL)	0.78 (≈ 0.416 µg/mL)	0.78 (≈ 0.416 µg/mL)	3.1 (≈ 1.66 µg/mL)	3.1 (≈ 1.66 µg/mL)	–	–	–	–	–
C[C@@H]1CN(c2noc3c(Cl)c4c(cc23)CC2(C(=O)NC(=O)NC2=O)[C@H]2[C@H](C)O[C@H](C)CN42)C(=O)O1 [Example 22]	6.68	12 (≈ 6.05 µg/mL)	200 (≈ 101 µg/mL)	> 200	0.78 (≈ 0.393 µg/mL)	0.39 (≈ 0.197 µg/mL)	0.39 (≈ 0.197 µg/mL)	0.39 (≈ 0.197 µg/mL)	< 0.2	0.78 (≈ 0.393 µg/mL)	0.78 (≈ 0.393 µg/mL)	–	–	–	–	–
C[C@@H]1CN2c3c(cc4c(N5C(=O)O[C@H](C)[C@@H]5C)noc4c3F)CC3(C(=O)NC(=O)NC3=O)[C@H]2[C@H](C)O1 [Example 23]	6.28	6.2 (≈ 3.11 µg/mL)	100 (≈ 50.1 µg/mL)	> 200	0.39 (≈ 0.196 µg/mL)	0.78 (≈ 0.391 µg/mL)	0.78 (≈ 0.391 µg/mL)	0.39 (≈ 0.196 µg/mL)	0.39 (≈ 0.196 µg/mL)	0.78 (≈ 0.391 µg/mL)	0.78 (≈ 0.391 µg/mL)	–	–	–	–	–
C[C@@H]1CN2c3c(cc4c(N5C(=O)O[C@@H](C)[C@H]5C)noc4c3F)CC3(C(=O)NC(=O)NC3=O)[C@H]2[C@H](C)O1 [Example 24]	< 5.68	50 (≈ 25.1 µg/mL)	> 200	> 200	3.1 (≈ 1.55 µg/mL)	1.6 (≈ 0.802 µg/mL)	1.6 (≈ 0.802 µg/mL)	0.78 (≈ 0.391 µg/mL)	0.39 (≈ 0.196 µg/mL)	1.6 (≈ 0.802 µg/mL)	1.6 (≈ 0.802 µg/mL)	–	–	–	–	–
C=CC[C@H]1COC(=O)N1c1noc2c(F)c3c(cc12)CC1(C(=O)NC(=O)NC1=O)[C@H]1[C@H](C)O[C@H](C)CN31 [Example 25, (2R,4S,4aS)-8-((S)-4-Allyl-2-oxooxazolidin-3-yl)-11-fluoro-2,4-dimethyl-2,4,4a,6-tetrahydro-1H,1′H-spiro[isoxazolo[4,5-g][1,4]oxazino[4,3-a]quinoline-5,5′-pyrimidine]-2′,4′,6′(3′H)-trione]	6.59	12 (≈ 6.16 µg/mL)	200 (≈ 103 µg/mL)	> 200	0.78 (≈ 0.401 µg/mL)	0.78 (≈ 0.401 µg/mL)	0.78 (≈ 0.401 µg/mL)	0.78 (≈ 0.401 µg/mL)	0.39 (≈ 0.2 µg/mL)	0.39 (≈ 0.2 µg/mL)	1.6 (≈ 0.822 µg/mL)	–	–	–	–	–
C[C@@H]1CN2c3c(cc4c(N5C[C@@H](CO)OC5=O)noc4c3F)CC3(C(=O)NC(=O)NC3=O)[C@H]2[C@H](C)O1 [Example 26, (2R,4S,4aS)-11-Fluoro-8-((S)-5-(hydroxymethyl)-2-oxooxazolidin-3-yl)-2,4-dimethyl-2,4,4a,6-tetrahydro-1H,1′H-spiro[isoxazolo[4,5-g][1,4]oxazino[4,3-a]quinoline-5,5′-pyrimidine]-2′,4′,6′(3′H)-trione]	6.77	25 (≈ 12.6 µg/mL)	> 200	> 200	< 0.2	0.28 (≈ 0.141 µg/mL)	0.55 (≈ 0.277 µg/mL)	< 0.2	2.2 (≈ 1.11 µg/mL)	12 (≈ 6.04 µg/mL)	1.6 (≈ 0.806 µg/mL)	–	–	–	–	–
C[C@@H]1CN2c3c(cc4c(N5C(=O)OC[C@H]5C5CCOCC5)noc4c3F)CC3(C(=O)NC(=O)NC3=O)[C@H]2[C@H](C)O1 [Example 27]	–	100 (≈ 55.8 µg/mL)	>200	–	–	0.78 (≈ 0.435 µg/mL)	0.78 (≈ 0.435 µg/mL)	–	–	3.1 (≈ 1.73 µg/mL)	1.6 (≈ 0.892 µg/mL)	6.28	>200	0.39 (≈ 0.217 µg/mL)	0.78 (≈ 0.435 µg/mL)	0.78 (≈ 0.435 µg/mL)
C[C@@H]1CN2c3c(cc4c(N5C(=O)OC[C@@H]5C5CCOCC5)noc4c3F)CC3(C(=O)NC(=O)NC3=O)[C@H]2[C@H](C)O1 [Example 28]	–	>200	>200	–	–	25 (≈ 13.9 µg/mL)	25 (≈ 13.9 µg/mL)	–	–	50 (≈ 27.9 µg/mL)	50 (≈ 27.9 µg/mL)	< 5.68	>200	25 (≈ 13.9 µg/mL)	25 (≈ 13.9 µg/mL)	25 (≈ 13.9 µg/mL)
C[C@@H]1CN2c3c(cc4c(N5C(=O)OC[C@@H]5CCCO)noc4c3F)CC3(C(=O)NC(=O)NC3=O)[C@H]2[C@H](C)O1 [Example 29, (2R,4S,4aS)-11-Fluoro-8-((S)-4-(3-hydroxypropyl)-2-oxooxazolidin-3-yl)-2,4-dimethyl-2,4,4a,6-tetrahydro-1H,1′H-spiro[isoxazolo[4,5-g][1,4]oxazino[4,3-a]quinoline-5,5′-pyrimidine]-2′,4′,6′(3′H)-trione]	6.57	100 (≈ 53.1 µg/mL)	> 200	> 200	0.78 (≈ 0.415 µg/mL)	0.39 (≈ 0.207 µg/mL)	0.78 (≈ 0.415 µg/mL)	0.39 (≈ 0.207 µg/mL)	3.1 (≈ 1.65 µg/mL)	12 (≈ 6.38 µg/mL)	3.1 (≈ 1.65 µg/mL)	–	–	–	–	–
C[C@@H]1CN2c3c(cc4c(N5C(=O)OC[C@@H]5CCCF)noc4c3F)CC3(C(=O)NC(=O)NC3=O)[C@H]2[C@H](C)O1 [Example 30, (2R,4S,4aS)-11-Fluoro-8-((S)-4-(3-fluoropropyl)-2-oxooxazolidin-3-yl)-2,4-dimethyl-2,4,4a,6-tetrahydro-1H,1′H-spiro[isoxazolo[4,5-g][1,4]oxazino[4,3-a]quinoline-5,5′-pyrimidine]-2′,4′,6′(3′H)-trione]	6.30	25 (≈ 13.3 µg/mL)	200 (≈ 107 µg/mL)	> 200	0.39 (≈ 0.208 µg/mL)	0.39 (≈ 0.208 µg/mL)	0.39 (≈ 0.208 µg/mL)	0.39 (≈ 0.208 µg/mL)	< 0.2	0.78 (≈ 0.416 µg/mL)	0.78 (≈ 0.416 µg/mL)	–	–	–	–	–
